Here are results for 9 molecules from US7683057B2, “Kinase inhibitor compounds” (Tyrogenex, Inc., priority 2007, dated 2010).

The first test concerns AMPK.
Assay: not given
To be noted: proteomic study, literature; cited from earlier work.
On to `Cc1[nH]c(/C=C2\C(=O)Nc3ccccc32)c(C)c1CCC(=O)O` [SU6668], for which the “inhibition of AMPK” value was “inhibits”.

In the next test the test system is AMPK (r). The test can be described thus: AMPK Biochemical Assay. On the set-up: species or system rat. To be noted: compared with sunitinib. On the procedure:
The compounds are assayed for biochemical activity essentially according to the following procedure. In a final reaction volume of 25 μl, AMPK (r) (5-10 mU) is incubated with 32 mM HEPES pH7.4, 0.65 mM DTT, 0.012% Brij-35, 200 μM AMP, 200 μM AMARAASAAALARRR, 10 mM MgAcetate and [(γ-33P-ATP] (specific activity approx. 500 cpm/pmol, concentration as required). The reaction is initiated by the addition of the MgATP mix. After incubation for 40 minutes at room temperature, the reaction is stopped by the addition of 5 μl of a 3% phosphoric acid solution. 10 μl of the reaction is then spotted onto a P30 filtermat and washed three times for 5 minutes in 75 mM phosphoric acid and once in methanol prior to drying and scintillation counting.
`Cc1[nH]c(/C=C2\C(=O)Nc3ccc(F)cc32)c(C)c1C(=O)N[C@H]1CCNC1=O` [Example 25, 5-[5-Fluoro-2-oxo-1,2-dihydro-indol-(3Z)-ylidenemethyl]-2,4-dimethyl-1H-pyrrole-3-carboxylic acid ((S)-2-oxo-pyrrolidin-3-yl)-amide]: the AMPK inhibitory activities result is given as “significantly less AMPK inhibitory activities than sunitinib”.
Still for that read-out and setting: the entry for `Cc1[nH]c(/C=C2\C(=O)Nc3ccc(F)cc32)c(C)c1C(=O)NC1CCN(C(=O)CO)CC1` [Example 22, 5-[5-Fluoro-2-oxo-1,2-dihydro-indol-(3Z)-ylidenemethyl]-2,4-dimethyl-1H-pyrrole-3-carboxylic acid [1-(2-hydroxy-acetyl)-piperidin-4-yl]-amide] is “significantly less AMPK inhibitory activities than sunitinib”; for `Cc1[nH]c(/C=C2\C(=O)Nc3ccc(F)cc32)c(C)c1C(=O)N[C@H]1CC[C@@H](C(=O)N2CCCC2)CC1` [Example 31, 5-[5-Fluoro-2-oxo-1,2-dihydro-indol-(3Z)-ylidenemethyl]-2,4-dimethyl-1H-pyrrole-3-carboxylic acid [4-(pyrrolidine-1-carbonyl)-cyclohexyl]-amide] it is “significantly less AMPK inhibitory activities than sunitinib”.
Still for that read-out and setting: the entry for `Cc1[nH]c(/C=C2\C(=O)Nc3ccc(F)cc32)c(C)c1C(=O)N[C@H]1CC[C@@H](C(=O)N2CCOCC2)CC1` [Example 30, 5-[5-Fluoro-2-oxo-1,2-dihydro-indol-(3Z)-ylidenemethyl]-2,4-dimethyl-1H-pyrrole-3-carboxylic acid [4-(morpholine-4-carbonyl)-cyclohexyl]-amide] is “significantly less AMPK inhibitory activities than sunitinib”.
Turning to `Cc1[nH]c(/C=C2\C(=O)Nc3ccc(F)cc32)c(C)c1C(=O)NC1CS(=O)(=O)CC1O` (stereo not drawn) [Example 17, 5-[5-Fluoro-2-oxo-1,2-dihydro-indol-(3Z)-ylidenemethyl]-2,4-dimethyl-1H-pyrrole-3-carboxylic acid (4-hydroxy-1,1-dioxo-tetrahydro-thiophen-3-yl)-amide], the AMPK inhibitory activities entry was “significantly less AMPK inhibitory activities than sunitinib”.
For the molecule `Cc1[nH]c(/C=C2\C(=O)Nc3ccc(F)cc32)c(C)c1C(=O)N[C@@H]1CON(C2CCOCC2)C1=O` [Example 48, 5-[5-Fluoro-2-oxo-1,2-dihydro-indol-(3Z)-ylidenemethyl]-2,4-dimethyl-1H-pyrrole-3-carboxylic acid [(R)-3-oxo-2-(tetrahydro-pyran-4-yl)-isoxazolidin-4-yl]-amide], the AMPK inhibitory activities result is recorded as “significantly less AMPK inhibitory activities than sunitinib”.
Regarding `Cc1[nH]c(/C=C2\C(=O)Nc3ccc(F)cc32)c(C)c1C(=O)N[C@@H]1CCC[C@@H]1C(=O)N1CCCC1` [Example 36, 5-[5-Fluoro-2-oxo-1,2-dihydro-indol-(3Z)-ylidenemethyl]-2,4-dimethyl-1H-pyrrole-3-carboxylic acid [(1R,2S)-2-(pyrrolidine-1-carbonyl)-cyclopentyl]-amide], the AMPK inhibitory activities entry was “significantly less AMPK inhibitory activities than sunitinib”.
On the same count and under the same terms, the entry for `Cc1[nH]c(/C=C2\C(=O)Nc3ccc(F)cc32)c(C)c1C(=O)N[C@H]1CCN(C(=O)C(=O)N(C)C)C1` [Example 29, 5-[5-Fluoro-2-oxo-1,2-dihydro-indol-(3Z)-ylidenemethyl]-2,4-dimethyl-1H-pyrrole-3-carboxylic acid ((S)-1-dimethylaminooxalyl-pyrrolidin-3-yl)-amide] is “significantly less AMPK inhibitory activities than sunitinib”.
